Read-outs that look alike come from different tables or passages of the source.

One test has as its target T1, GRdim (Homo sapiens, UniProt P04150, A458T).
T1 sequence (P04150 1-777 A458T): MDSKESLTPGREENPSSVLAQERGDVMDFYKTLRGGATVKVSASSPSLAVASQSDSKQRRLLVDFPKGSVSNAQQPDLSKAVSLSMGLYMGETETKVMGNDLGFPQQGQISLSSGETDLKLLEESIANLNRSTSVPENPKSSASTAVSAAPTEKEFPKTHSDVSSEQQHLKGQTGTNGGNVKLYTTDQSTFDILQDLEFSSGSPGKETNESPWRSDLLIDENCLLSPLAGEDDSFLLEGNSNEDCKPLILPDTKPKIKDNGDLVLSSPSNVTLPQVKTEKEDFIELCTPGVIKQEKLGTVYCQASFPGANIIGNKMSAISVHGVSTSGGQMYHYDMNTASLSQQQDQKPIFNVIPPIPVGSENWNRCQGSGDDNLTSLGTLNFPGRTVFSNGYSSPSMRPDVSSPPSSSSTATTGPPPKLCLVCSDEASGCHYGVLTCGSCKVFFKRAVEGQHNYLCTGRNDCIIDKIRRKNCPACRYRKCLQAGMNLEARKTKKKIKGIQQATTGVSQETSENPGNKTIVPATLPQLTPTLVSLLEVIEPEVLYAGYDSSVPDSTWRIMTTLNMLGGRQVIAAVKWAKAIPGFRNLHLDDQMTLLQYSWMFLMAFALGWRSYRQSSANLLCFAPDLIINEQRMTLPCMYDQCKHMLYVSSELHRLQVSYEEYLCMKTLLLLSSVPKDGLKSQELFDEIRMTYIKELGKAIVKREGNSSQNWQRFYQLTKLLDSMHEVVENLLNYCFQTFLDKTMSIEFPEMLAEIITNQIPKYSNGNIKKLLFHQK
The experiment in a line: Promoter-reporter transactivation (pTAT-GRE2-E1b-luc) in COS-1 cells, GRdim. Format: cell-based. As to the method: (§1) Cells were transfected with low, medium or high GRwt, low or medium GRdim and 3000 ng pTAT-GRE2-E1b-luc filled to 14550 ng total plasmid with empty vector. Cells were replated 24 h later into 96-well plates (4×10^4 cells/well) in charcoal-stripped DMEM. […] Cells were lysed with 30 µl of passive lysis buffer (Promega), and subjected to a freeze thaw cycle. Luciferase activity was determined using a luciferase assay kit (Promega). Light emission was measured in a Veritas microplate luminometer (Turner Biosystems). Luciferase relative light units were normalized against protein concentrations. Sigmoidal dose-response curves were fit to the experimental data which generated basal induction (bottom), maximal induction (top-bottom), fold-induction (top/bottom), and log EC50.

Test [1] deals with T2, GRwt (Homo sapiens, UniProt P04150).
T2 sequence (P04150 1-777): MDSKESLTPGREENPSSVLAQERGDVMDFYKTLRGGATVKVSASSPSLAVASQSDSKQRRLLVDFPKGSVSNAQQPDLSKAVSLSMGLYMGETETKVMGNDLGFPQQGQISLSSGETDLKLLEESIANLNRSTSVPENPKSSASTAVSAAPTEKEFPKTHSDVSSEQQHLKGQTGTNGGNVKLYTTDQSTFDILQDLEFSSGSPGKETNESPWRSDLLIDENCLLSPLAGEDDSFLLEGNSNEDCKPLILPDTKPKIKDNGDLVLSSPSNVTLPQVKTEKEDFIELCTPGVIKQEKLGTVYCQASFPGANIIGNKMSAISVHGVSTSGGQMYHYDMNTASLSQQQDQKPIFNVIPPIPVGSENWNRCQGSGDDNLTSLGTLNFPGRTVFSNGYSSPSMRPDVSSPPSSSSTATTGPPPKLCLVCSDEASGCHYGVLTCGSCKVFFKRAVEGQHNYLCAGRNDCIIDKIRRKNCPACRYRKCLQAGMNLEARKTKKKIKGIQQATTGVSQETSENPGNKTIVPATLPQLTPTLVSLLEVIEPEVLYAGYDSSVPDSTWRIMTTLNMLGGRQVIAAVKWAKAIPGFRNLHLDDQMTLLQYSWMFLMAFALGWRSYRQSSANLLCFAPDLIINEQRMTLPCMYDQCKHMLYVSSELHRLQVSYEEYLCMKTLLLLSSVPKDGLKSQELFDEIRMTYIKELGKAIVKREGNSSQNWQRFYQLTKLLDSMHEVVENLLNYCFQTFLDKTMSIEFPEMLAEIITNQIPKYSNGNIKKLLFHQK
Briefly: Promoter-reporter transactivation (pTAT-GRE2-E1b-luc) in COS-1 cells, GRwt. The test is classed as cell-based. The settings on record: for EC50: read-out: Potency (log EC50) (converted). On the procedure:
as §1

Test [2] concerns the target GRwt. The settings on record: COS-1 cells transiently transfected with high levels of GRwt; cited from earlier work.
Test [3] concerns the target T3, Flag-tagged human glucocorticoid receptor alpha, wild type (pEFFlaghGRα) (human, UniProt P04150 1-777).
T3 construct: glucocorticoid receptor alpha (hGRα), human, wild type; construct pEFFlaghGRα, molecular mass 96 kDa as printed; also called Flag-GR; Flag-GRwt; source: COS-1, transiently transfected (DEAE-dextran), in lysate
T3 sequence (looked up): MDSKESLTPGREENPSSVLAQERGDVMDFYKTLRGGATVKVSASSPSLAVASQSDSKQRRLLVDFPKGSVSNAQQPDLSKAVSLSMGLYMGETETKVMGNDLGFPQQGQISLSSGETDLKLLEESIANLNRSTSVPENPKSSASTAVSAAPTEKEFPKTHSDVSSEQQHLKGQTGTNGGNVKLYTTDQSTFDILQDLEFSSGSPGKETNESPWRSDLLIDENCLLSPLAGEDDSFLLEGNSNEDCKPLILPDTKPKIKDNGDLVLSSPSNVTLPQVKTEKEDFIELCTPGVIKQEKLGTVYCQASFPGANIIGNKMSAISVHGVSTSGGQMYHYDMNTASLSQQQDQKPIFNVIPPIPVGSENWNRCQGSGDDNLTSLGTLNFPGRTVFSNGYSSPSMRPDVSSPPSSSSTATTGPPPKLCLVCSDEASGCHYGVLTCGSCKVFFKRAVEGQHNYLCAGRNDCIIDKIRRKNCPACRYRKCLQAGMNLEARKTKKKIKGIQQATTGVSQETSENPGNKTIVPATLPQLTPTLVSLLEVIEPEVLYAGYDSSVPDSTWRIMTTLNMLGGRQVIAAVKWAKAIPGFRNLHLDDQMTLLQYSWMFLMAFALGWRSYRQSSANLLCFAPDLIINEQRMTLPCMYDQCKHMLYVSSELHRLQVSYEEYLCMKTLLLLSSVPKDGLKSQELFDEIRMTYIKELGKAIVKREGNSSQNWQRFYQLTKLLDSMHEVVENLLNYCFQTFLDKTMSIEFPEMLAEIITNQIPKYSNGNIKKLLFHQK
Briefly: co-IP; low GR levels co-transfected in COS-1 cells; cells treated 1 h with vehicle (ethanol), 10^-6 M DEX or 10^-5 M CpdA; 600 µg lysate protein on anti-FLAG M2 affinity gel beads, 16 h at 4°C, Buffer A with 2.5% casein; immunoblot with anti-GR; GFP-GR pull-down normalized to Flag-GR. As to conditions: partners not purified.

For test [4], the target named is T3, Flag-tagged human glucocorticoid …. The experiment in a line: co-IP; medium or high GR levels co-transfected in COS-1 cells; cells treated 1 h with vehicle (ethanol) or 10^-6 M DEX; 200 µg lysate protein on anti-FLAG M2 affinity gel beads, 16 h at 4°C, Buffer A with 2.5% casein; immunoblot with anti-GR; GFP-GR pull-down normalized to Flag-GR. The settings on record: partners not purified.

Consider `C[C@]12CCC(=O)C=C1CC[C@@H]1[C@@H]2[C@@H](O)C[C@@]2(C)[C@H]1CC[C@]2(O)C(=O)CO` [F, cortisol], for which the “Maximal induction (RLU/mg protein)” value at GRdim (GRdim concentration Low) was 3.7 x 10^4± 8.3 x 10^3 RLU/mg protein; on GRdim (GRdim concentration Medium), 2.2 x 10^5 ± 5.7 x 10^4 RLU/mg protein; on GRwt [1] (GRwt concentration Low), 2.8 x 10^4 ± 7.2 x 10^3 RLU/mg protein; at GRwt [1] (GRwt concentration Medium), 8.8 x 10^4 ± 6 x 10^3 RLU/mg protein.

`CC(=O)O[C@]1(C(C)=O)CC[C@H]2[C@@H]3C[C@H](C)C4=CC(=O)CC[C@]4(C)[C@H]3CC[C@@]21C` [MPA, medroxyprogesterone acetate]: the figures for the “Maximal induction (RLU/mg protein)” value at GRwt [1] (GRwt concentration Low) and at GRwt [1] (GRwt concentration Medium) were 3.5 x 10^4 ± 8.3 x 10^3 RLU/mg protein and 1.5 x 10^5 ± 2.3 x 10^4 RLU/mg protein, respectively. Further, the concentration for a half-maximal effect (EC50) is 23.4 nM on GRwt [1] (GRwt concentration Low, pTAT-GRE2-Elb-luc, 24h) and 8.71 nM on GRwt [1] (GRwt concentration Medium).

`C[C@@H]1C[C@H]2[C@@H]3CCC4=CC(=O)C=C[C@]4(C)[C@@]3(F)[C@@H](O)C[C@]2(C)[C@@]1(O)C(=O)CO` [DEX, Dexamethasone]: at GRwt [2], the dissociation constant (Kd) was 12.6 nM.

In the case of `CC#C[C@]1(O)CC[C@H]2[C@@H]3CCC4=CC(=O)CCC4=C3[C@@H](c3ccc(N(C)C)cc3)C[C@@]21C` [RU486, mifepristone], the “Maximal induction (RLU/mg protein)” value on GRdim (GRdim concentration Low) is listed as 7.1 x 10^4 ± 8.7 x 10^3 RLU/mg protein; on GRdim (GRdim concentration Medium), 4.0 x 10^5 ± 7.8 x 10^4 RLU/mg protein; at GRwt [1] (GRwt concentration Low), 1.8 x 10^4 ± 3.7 x 10^3 RLU/mg protein; on GRwt [1] (GRwt concentration Medium) it was 6.4 x 10^4 ± 7.5 x 10^3 RLU/mg protein.

B1: GFP-tagged dimerization-deficient glucocorticoid receptor (pEGFP-C2-GRA477T, carrying the GRdim sequence from pHisGRA458T) (receptor, human, UniProt P04150 1-777, looked up)
chain: MDSKESLTPGREENPSSVLAQERGDVMDFYKTLRGGATVKVSASSPSLAVASQSDSKQRRLLVDFPKGSVSNAQQPDLSKAVSLSMGLYMGETETKVMGNDLGFPQQGQISLSSGETDLKLLEESIANLNRSTSVPENPKSSASTAVSAAPTEKEFPKTHSDVSSEQQHLKGQTGTNGGNVKLYTTDQSTFDILQDLEFSSGSPGKETNESPWRSDLLIDENCLLSPLAGEDDSFLLEGNSNEDCKPLILPDTKPKIKDNGDLVLSSPSNVTLPQVKTEKEDFIELCTPGVIKQEKLGTVYCQASFPGANIIGNKMSAISVHGVSTSGGQMYHYDMNTASLSQQQDQKPIFNVIPPIPVGSENWNRCQGSGDDNLTSLGTLNFPGRTVFSNGYSSPSMRPDVSSPPSSSSTATTGPPPKLCLVCSDEASGCHYGVLTCGSCKVFFKRAVEGQHNYLCTGRNDCIIDKIRRKNCPACRYRKCLQAGMNLEARKTKKKIKGIQQATTGVSQETSENPGNKTIVPATLPQLTPTLVSLLEVIEPEVLYAGYDSSVPDSTWRIMTTLNMLGGRQVIAAVKWAKAIPGFRNLHLDDQMTLLQYSWMFLMAFALGWRSYRQSSANLLCFAPDLIINEQRMTLPCMYDQCKHMLYVSSELHRLQVSYEEYLCMKTLLLLSSVPKDGLKSQELFDEIRMTYIKELGKAIVKREGNSSQNWQRFYQLTKLLDSMHEVVENLLNYCFQTFLDKTMSIEFPEMLAEIITNQIPKYSNGNIKKLLFHQK
notes: the plasmid's name says A477T, the text A458T; also called GFP-GRdim; source: COS-1, transiently transfected (DEAE-dextran), in lysate
With B1, in test [3], the “GFP-GR pull-down after ethanol, relative to DEX-induced GRwt set at 100 percent (low GR level)” value lay in the range of 36 to 66%. The “GFP-GR pull-down after ethanol, relative to DEX-induced GRwt set at 100 percent (high GR level)” value in test [4] was 36 to 66%.

The record behind these values is paper PMC3661511, “Impact of Glucocorticoid Receptor Density on Ligand-Independent Dimerization, Cooperative Ligand-Binding and Basal Priming of Transactivation: A Cell Culture Model” (PLoS ONE, 2013).
